The assay relates to Diatraea saccharalis. Description: Insecticidal activity against fourth-instar Diatraea saccharalis assessed as larval mortality measured per insect after 24 hr exposure. It is filed as functional.

`CC(C)CNC(=O)/C=C/CCc1ccc2c(c1)OCO2` [4,5-DIHYDROPIPERLONGUMININE]: the LD50 was 92.83 µg and the LD90 amounted to 176.5 µg.

With `CCCCC/C=C/C=C/C(=O)NCC(C)C` [PELLITORIN], the LD50 is 91.19 µg and the LD90 was 184.56 µg.

The values are drawn from ChEMBL document CHEMBL3044752, “Isobutyl amides--potent compounds for controlling Diatraea saccharalis” (2009).
